Experimental data: patent EP0505220A1, “New compounds for use in the treatment of cancer” (JARMAN, Michael, priority 1991, dated 1992)

Key:
PC6 Murine plasmacytoma = test: Activity in vitro towards PC6 cell line; assay type: cell-based; details: for IC50: PC-6, PC6 Murine plasmacytoma, at least in duplicate, read-out: IC₅₀ PC6
Protocol: (§1) Results expressed as µM (IC₅₀ values). All experiments were conducted at least in duplicate.

ADJ/PC6 tumour = test: Antitumour activity towards the ADJ/PC6 tumour in mice; assay type: in vivo; details: for Highest % inhibition: dose (mg/kg)
[1] = tested on: GCT human testicular germ cell tumour cell line; test: Activity in vitro towards GCT cell line; assay type: cell-based; details: at least in duplicate, read-out: IC₅₀ GCT
Protocol: as §1

[2] = tested on: GCT/CIS R 6-fold platinum resistant variant of above; test: Activity in vitro towards GCT/CIS R cell line; assay type: cell-based; details: Homo sapiens; 6-fold platinum resistant variant of GCT; at least in duplicate; read-out: IC₅₀ GCT/CIS R
Protocol: as §1

[3] = Toxicity (LD50) in the ADJ/PC6 mouse study; details: in vivo
[4] = Judson et al. 1989; cited from earlier work
[5] = tested on: L-1210 murine lymphocytic leukaemia; test: Activity in vitro towards L-1210 cell line; assay type: cell-based; details: Mus musculus, L1210, at least in duplicate, read-out: IC₅₀ L-1210
Protocol: as §1

[6] = tested on: H69 human small cell lung cancer cell line; test: Activity in vitro towards H69 cell line; assay type: cell-based; details: NCI-H69, at least in duplicate, read-out: IC₅₀ H69
Protocol: as §1

[7] = tested on: human ovarian tumour cell lines; test: Activity in vitro towards ovarian cell lines; assay type: cell-based; details: Table 4 (image)
[8] = tested on: cisplatin-resistant cell-lines; test: Activity in vitro towards cisplatin-resistant cell lines; assay type: cell-based, human; details: Table 4 (image)
Source text: Of particular interest is that compounds (5) and (13) show high activity against cisplatin-resistant cell-lines.

[9] = Stability of the hydroxymethyl function in human plasma (HPLC); assay type: in vitro ADME; details: human plasma at 37°C, 100 µg/ml; read-out: half-life values for the release of product (9) in human plasma
Protocol: Stability Studies. The influence of the trifluoromethyl substituent on the stability of the hydroxymethyl function under simulated physiological conditions was determined for compound (10) containing contiguous hydroxymethyl and […] functions. General Procedure (for 10). To fresh human plasma (9.9 ml) pre-warmed to 37°C was added a solution of the compound to be studied in dimethylsulphoxide (0.1 ml; 10mg/ml) to give a final concentration of 100 µg/ml. At intervals of 0, 5, 10, 15, 20, 30, 40, 50, 60, 75, 90, 105 and 120 min, aliquots (0.5 ml) were withdrawn and added to ice-cold MeOH (1ml). After centrifugation at 4°C the supernatants were placed in cooled vials on a cold plate (3°C) and aliquots (25 µl) analysed by HPLC using an autosampler. The column used was a C6 (Spherisorb) 15cm x 4.6 mm with a precolumn, and was eluted with MeOH:0.05 M aq. NH₄HCO₃, 55:45, at a flow rate of 1.5 ml min⁻¹. Products were monitored by absorbance at 225 nm. Retention times were: for (10) 11.0 min and for its breakdown product (9) 9.6 min. […] Biological Results. The anti-tumour activities of the compounds of the invention against ADJ/PC6 tumour in mice and against human ovarian tumour cell lines were compared with that of trimelamol (1).

Row | Compound | IC50 (PC6 Murine plasmacytoma) [µM] | Highest % inhibition (ADJ/PC6 tumour) | IC50 [1] [µM] | IC50 [2] [µM] | LD50 [3] [mg/kg] | IC50 [5] [µM] | other results
1 | OCOCN(CC(F)(F)F)c1nc(N(CO)CC(F)(F)F)nc(N(CO)CC(F)(F)F)n1 [Compound 6, 2-[([hydroxymethoxy]methyl)(2,2,2-trifluoroethyl)amino]-4,6-bis(hydroxymethyl)(2,2,2-trifluoroethyl)-amino-1,3,5-triazine] | 34.4 | 65 (5 x 12.5) % | 25.8 | 23.7 | 280 |  | 
2 | OCN(CC(F)(F)F)c1nc(NCC(F)(F)F)nc(NCC(F)(F)F)n1 [Compound 4, 2-(Hydroxymethyl)(2,2,2-trifluoroethyl)amino-4,6-bis[(2,2,2-trifluoroethyl)amino]-1,3,5-triazine] |  | 40 (5 x 50) % |  |  | 117 |  | 
3 | CN(CO)c1nc(N(C)CO)nc(N(C)CO)n1 [Compound 1, 2,4,6-tris{(hydroxymethyl)(methyl)amino}-1,3,5-triazine, reference compound] | 10.1 | 96 (5 x 100) % | 24.3 | 25.9 | 140 | 41.7 | half-life in humans [4]: short; potency against the ADJ/PC6 tumour cell line in vitro relative to the other compounds (PC6 Murine plasmacytoma; (1) versus (5), (6) and (13)): greater than 3 fold; Therapeutic Index LD50/ED90 (ADJ/PC6 tumour): 3.1; ED90 (ADJ/PC6 tumour; Mus musculus): 45 mg/kg; IC50 [6]: 8.7 µM
4 | OCN(CC(F)(F)F)c1nc(N(CO)CC(F)(F)F)nc(N(CO)CC(F)(F)F)n1 [Compound 5, 2,4,6-Tris[(Hydroxymethyl)(2,2,2-trifluoroethyl)amino]-1,3,5-triazine] | 38.2 |  |  |  |  | 48.6 | potency in a variety of ovarian cell lines compared with (1) [7]: virtually equipotent with (1); activity against cisplatin-resistant cell-lines [8]: high activity
5 | CN(C)c1nc(N(C)C)nc(N(C)CO)n1 [N-hydroxymethylpentamethylmelamine, reference compound] |  |  |  |  |  |  | half-life [9]: 30 min
6 | CN(C)c1nc(N(C)C)nc(N(CO)CC(F)(F)F)n1 [Compound 10, 2,4-Bis(Dimethylamino)-6-(hydroxymethyl)(2,2,2,trifluoroethyl)-amino-1,3,5-triazine] |  |  |  |  |  |  | half-life [9]: 45 min
7 | C#CCN(CO)c1nc(N(CO)CC#C)nc(N(CO)CC#C)n1 [Compound 13, 2,4,6-Tris[(hydroxymethyl)(propargyl)amino]-1,3,5-triazine] | 36.8 | none (none - less than 40%) | 48.9 | 41.8 | 280 | 50.7 | potency in a variety of ovarian cell lines compared with (1) [7]: virtually equipotent with (1); activity against cisplatin-resistant cell-lines [8]: high activity
8 | 2-(Hydroxyethyl)(2,2,2-trifluoroethyl)amino-4-methyl-6-(2,2,2-trifluoroethyl)amino-1,3,5-triazine [Compound 7] |  | 56 (5 x 25) % |  |  |  |  | 
9 | FC(F)(F)CNc1nc(NCC(F)(F)F)nc(NCC(F)(F)F)n1 [Compound 3, 2,4,6-Tris[(2,2,2-Trifluoroethyl)amino]-1,3,5-triazine] |  | none^b (none - less than 40%) |  |  | 71 |  | 
